Patent US8426408B2, “Pyrimidine inhibitors of kinases” (AbbVie Inc., priority 2009, dated 2013)

How the values were obtained:
Assay type in all cases: biochemical
Aurora A = target: T1, Aurora A (Homo sapiens, UniProt O14965); assay: Aurora A enzyme inhibition (time-resolved fluorescence, STK substrate-2); details: 1 mM ATP
T1 sequence (O14965 1-403): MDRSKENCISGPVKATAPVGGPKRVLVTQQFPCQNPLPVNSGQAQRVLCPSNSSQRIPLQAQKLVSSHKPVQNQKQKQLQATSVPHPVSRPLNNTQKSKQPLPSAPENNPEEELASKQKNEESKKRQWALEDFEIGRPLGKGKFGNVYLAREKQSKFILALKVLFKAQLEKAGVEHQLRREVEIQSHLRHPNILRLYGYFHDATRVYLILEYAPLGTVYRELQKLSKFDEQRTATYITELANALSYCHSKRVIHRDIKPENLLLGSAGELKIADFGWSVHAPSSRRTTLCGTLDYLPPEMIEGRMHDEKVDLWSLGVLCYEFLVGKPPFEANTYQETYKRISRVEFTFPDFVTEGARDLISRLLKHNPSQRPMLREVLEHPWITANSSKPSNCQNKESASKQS
In short: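 Active enzyme incubated 1 h with biotinylated STK substrate-2, 1 mM ATP and inhibitor in Hepes pH 7.4 with MgCl2, orthovanadate and Triton X-100. EDTA stop; phosphopeptide detected by Eu-cryptate anti-phospho-STK/SA-XL665 TR-FRET (665/615 nm ratio); IC50 by exponential fit.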

Aurora B = target: T2, Aurora B (Homo sapiens, UniProt Q96GD4); assay: Aurora B enzyme inhibition (time-resolved fluorescence, histone H3 peptide); details: 1 mM ATP
T2 construct: Active Aurora B enzyme (recombinant residues 1-344)
In short: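 Recombinant Aurora B (residues 1-344) with GST-INCENP phosphorylated biotinylated histone H3 (1-21) peptide at 1 mM ATP in HEPES pH 7.4 with MgCl2, orthovanadate and Triton X-100 for 1 h. After EDTA stop, the phosphopeptide was detected by TR-FRET (Eu-cryptate anti-phospho-H3 / SA-APC, 665/615 nm ratio). IC50 from an exponential fit.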

KDR = KDR (Homo sapiens, UniProt P35968); assay: KDR HTRF in vitro kinase assay; design: purified enzyme (His6-KDR 789-1354, MW 63 kD); His6 (N); details: 1 mM ATP; read-out: KDR enzyme inhibition data (Ki)
In short: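 His6-KDR 789-1354 (7 ng/well) with 0.5 μM biotinylated peptide substrate and 1 mM ATP in HEPES pH 7.1, MgCl2/MnCl2, 60 min at room temperature. EDTA-quenched, detected by streptavidin-XL-665 plus Eu-kryptate anti-phosphotyrosine HTRF after 3 h; IC50 from 620/665 nm ratio.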

KDR, sequence (P35968 789-1354): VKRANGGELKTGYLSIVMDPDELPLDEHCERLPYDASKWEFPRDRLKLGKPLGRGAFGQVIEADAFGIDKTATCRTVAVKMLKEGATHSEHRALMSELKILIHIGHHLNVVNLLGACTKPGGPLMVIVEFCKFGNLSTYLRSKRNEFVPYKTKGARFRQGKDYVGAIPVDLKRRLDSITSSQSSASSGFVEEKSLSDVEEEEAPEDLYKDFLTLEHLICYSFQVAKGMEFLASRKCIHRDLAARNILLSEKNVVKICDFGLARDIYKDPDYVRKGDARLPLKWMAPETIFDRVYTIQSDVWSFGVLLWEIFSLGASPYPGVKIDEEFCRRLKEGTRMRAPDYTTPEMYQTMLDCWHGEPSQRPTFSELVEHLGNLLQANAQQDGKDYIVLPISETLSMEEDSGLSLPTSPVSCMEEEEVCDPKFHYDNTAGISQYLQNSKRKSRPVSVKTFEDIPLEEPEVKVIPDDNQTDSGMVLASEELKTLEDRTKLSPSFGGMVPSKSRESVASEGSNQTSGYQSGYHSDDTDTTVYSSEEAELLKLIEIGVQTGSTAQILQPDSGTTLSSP
T2 sequence (Q96GD4 whole entry, the tested form may be a part): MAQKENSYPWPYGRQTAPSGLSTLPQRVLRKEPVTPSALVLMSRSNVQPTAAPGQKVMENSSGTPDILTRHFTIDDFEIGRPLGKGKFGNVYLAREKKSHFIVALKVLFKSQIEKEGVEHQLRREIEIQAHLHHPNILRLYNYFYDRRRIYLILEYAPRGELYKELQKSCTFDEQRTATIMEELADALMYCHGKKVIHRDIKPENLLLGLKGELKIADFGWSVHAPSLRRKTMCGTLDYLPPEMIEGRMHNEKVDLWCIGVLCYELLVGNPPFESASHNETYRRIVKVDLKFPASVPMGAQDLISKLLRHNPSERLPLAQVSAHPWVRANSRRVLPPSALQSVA
T2 sequence (Q9NQS7 826-918 partner limits assumed): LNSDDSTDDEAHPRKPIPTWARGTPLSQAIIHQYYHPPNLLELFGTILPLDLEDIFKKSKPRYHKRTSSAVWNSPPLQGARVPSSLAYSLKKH

SMILES | Ki (Aurora A) [nM] | Ki (Aurora B) [nM] | Ki (KDR) [nM]
CN(C)C(=O)Cn1cc(Nc2ncc(Cl)c(N[C@@H]3[C@H]4CC[C@H](C4)[C@@H]3C(N)=O)n2)cn1.CN(C)C(=O)Cn1cc(Nc2ncc(Cl)c(N[C@H]3[C@@H]4CC[C@@H](C4)[C@H]3C(N)=O)n2)cn1 (mixture of isomers) [Example 58, (1R,2S,3R,4S)-3-{[5-chloro-2-({1-[2-(dimethylamino)-2-oxoethyl]-1H-pyrazol-4-yl}amino)pyrimidin-4-yl]amino}bicyclo[2.2.1]heptane-2-carboxamide and (1S,2R,3S,4R)-3-{[5-chloro-2-({1-[2-(dimethylamino)-2-oxoethyl]-1H-pyrazol-4-yl}amino)pyrimidin-4-yl]amino}bicyclo[2.2.1]heptane-2-carboxamide] | < 100 | < 100 | < 100
NC(=O)[C@@H]1[C@H]2CC[C@H](C2)[C@@H]1Nc1nc(Nc2cnn(CCN3CCOCC3)c2)ncc1Cl.NC(=O)[C@H]1[C@@H]2CC[C@@H](C2)[C@H]1Nc1nc(Nc2cnn(CCN3CCOCC3)c2)ncc1Cl (mixture of isomers) [Example 60, (1R,2S,3R,4S)-3-[(5-chloro-2-{[1-(2-morpholin-4-ylethyl)-1H-pyrazol-4-yl]amino}pyrimidin-4-yl)amino]bicyclo[2.2.1]heptane-2-carboxamide and (1S,2R,3S,4R)-3-[(5-chloro-2-{[1-(2-morpholin-4-ylethyl)-1H-pyrazol-4-yl]amino}pyrimidin-4-yl)amino]bicyclo[2.2.1]heptane-2-carboxamide] | < 100 | < 100 | < 100
Cn1cc(Nc2ncc(C(F)(F)F)c(N[C@@H]3[C@H](C(=O)NCCO)[C@H]4C=C[C@@H]3C4)n2)cn1.Cn1cc(Nc2ncc(C(F)(F)F)c(N[C@H]3[C@@H](C(=O)NCCO)[C@@H]4C=C[C@H]3C4)n2)cn1 (mixture of isomers) [Example 67, (1S,2S,3R,4R)—N-(2-hydroxyethyl)-3-{[2-[(1-methyl-1H-pyrazol-4-yl)amino]-5-(trifluoromethyl)pyrimidin-4-yl]amino}bicyclo[2.2.1]hept-5-ene-2-carboxamide and (1R,2R,3S,4S)—N-(2-hydroxyethyl)-3-{[2-[(1-methyl-1H-pyrazol-4-yl)amino]-5-(trifluoromethyl)pyrimidin-4-yl]amino}bicyclo[2.2.1]hept-5-ene-2-carboxamide] | < 100 | < 100 | < 100

Second part, the molecule after the results:

Ki (Aurora A) [nM] | Ki (Aurora B) [nM] | Ki (KDR) [nM] | SMILES
< 100 | < 100 | < 100 | CCn1cc(Nc2ncc(Cl)c(N[C@@H]3[C@H]4CC[C@H](C4)[C@@H]3C(N)=O)n2)cn1.CCn1cc(Nc2ncc(Cl)c(N[C@H]3[C@@H]4CC[C@@H](C4)[C@H]3C(N)=O)n2)cn1 (mixture of isomers) [Example 57, (1R,2S,3R,4S)-3-({5-chloro-2-[(1-ethyl-1H-pyrazol-4-yl)amino]pyrimidin-4-yl}amino)bicyclo[2.2.1]heptane-2-carboxamide and (1S,2R,3S,4R)-3-({5-chloro-2-[(1-ethyl-1H-pyrazol-4-yl)amino]pyrimidin-4-yl}amino)bicyclo[2.2.1]heptane-2-carboxamide]
< 100 | < 100 | < 100 | NC(=O)[C@@H]1[C@H]2CC[C@H](C2)[C@@H]1Nc1nc(Nc2cnn(CCO)c2)ncc1Cl.NC(=O)[C@H]1[C@@H]2CC[C@@H](C2)[C@H]1Nc1nc(Nc2cnn(CCO)c2)ncc1Cl (mixture of isomers) [Example 59, (1R,2S,3R,4S)-3-[(5-chloro-2-{[1-(2-hydroxyethyl)-1H-pyrazol-4-yl]amino}pyrimidin-4-yl)amino]bicyclo[2.2.1]heptane-2-carboxamide and (1S,2R,3S,4R)-3-[(5-chloro-2-{[1-(2-hydroxyethyl)-1H-pyrazol-4-yl]amino}pyrimidin-4-yl)amino]bicyclo[2.2.1]heptane-2-carboxamide]
